≈ marks a conversion by molar mass, not a printed value.
Experiments:
[1] = tested on: Staph. aureus L165; assay: MIC determination, standard dilution test (Isosensitest broth); type: cell-based; details: Staphylococcus aureus
[2] = tested on: Staph. epidermidis L147 ATCC 12228 (coagulase negative); assay: as above; type: cell-based; details: Staphylococcus epidermidis, ATCC12228, 24 h
[3] = tested on: Strep. pyogenes L49 C203; assay: MIC determination, standard dilution test (Todd-Hewitt broth); type: cell-based; details: Streptococcus pyogenes, L49C203, 24 h
[4] = tested on: Strep. pneumoniae L44 UC41; assay: as above; type: cell-based; details: Streptococcus pneumoniae, 24 h
[5] = tested on: Strep. faecalis L149 ATCC 7080; assay: MIC determination, standard dilution test (Isosensitest broth); type: cell-based; details: Enterococcus faecalis, ATCC7080, 24 h
[6] = tested on: Strep. mitis L796 (clinical isolate); assay: MIC determination, standard dilution test (Todd-Hewitt broth); type: cell-based; details: Streptococcus mitis, 24 h
[7] = tested on: Clostridium perfringens L290 ISS 30543; assay: microbe, parasite or virus in culture; type: cell-based; details: L290ISS30543, 24 h
[8] = tested on: Clostridium difficile L1363 ATCC 9689; assay: MIC determination, agar dilution (Wilkins-Chalgren agar, anaerobic); type: cell-based; details: Clostridioides difficile, ATCC9689, 48 h
[9] = tested on: Propionibacterium acnes L1014 ATCC 6919; assay: as above; type: cell-based; details: Cutibacterium acnes, ATCC6919, 48 h
[10] = tested on: Bacteroides fragilis L1010 ATCC 23745; assay: as above; type: cell-based; details: ATCC23745, 48 h
[11] = tested on: Neisseria gonorrhoeae L997 ISM68/126; assay: MIC determination, standard dilution test (GC base broth + 1% Isovitalex); type: cell-based; details: L997ISM68/126, 48 h, CO2-enriched
[12] = tested on: Haemophilus influenzae L 970 type b ATCC 19418; assay: MIC determination, standard dilution test (Brain Heart broth + 1% Supplement C); type: cell-based; details: ATCC19418, 48 h
[13] = tested on: Escherichia coli L47 SKF 12140; assay: MIC determination, standard dilution test (Isosensitest broth); type: cell-based; details: L47SKF12140, 24 h
[14] = tested on: Mycoplasma gallisepticum L431 S6 Weybridge; assay: MIC determination, standard dilution test (PPLO broth); type: cell-based; details: Mycoplasmoides gallisepticum; PPLO broth + 10% horse serum + 1% glucose, 48 h
[15] = tested on: S. pyogenes C 203 (L 49); assay: Experimental septicemia in the mouse; type: in vivo, CD-1 mice infected with S. pyogenes; details: Streptococcus pyogenes, sc, 168 h, subcutaneous immediately after infection, survival on 7th day
Method: The antimicrobial activity of the compounds of the invention is confirmed also in experimental septicemia in the mouse. Control and treatment groups contained ten CD-1 mice (Charles River) weighing 18-22 g. They were infected intraperitoneally with 0.5 ml of bacterial suspension prepared by diluting an overnight culture of S. pyogenes C 203 (L 49) with sterile peptonized saline. Inocula were adjusted so that untreated animals died of septicemia within 48 h. The compounds to be tested were administered subcutaneously immediately after infection. On the 7th day, the ED50 in mg/kg was calculated by the method of Spearman and Karber (D. J. Finney "Statistical Methods in Biological Assay", Griffin, page 524, 1952) from the percentage of surviving animals at each dose.

CNC1C(=O)NC2Cc3ccc(cc3)Oc3cc4cc(c3O)Oc3ccc(cc3Cl)C(O)C3NC(=O)C(NC(=O)C4NC(=O)C(NC2=O)c2cc(cc(O)c2Cl)Oc2cc1ccc2O)c1ccc(O)c(c1)-c1c(O)cc(O)cc1C(C(=O)O)NC3=O (stereo not shown) [Antibiotic A 40926 aglycon]
MIC ([1]; L165, 24 h, Staph. aureus L165 (10^6 cfu/ml)): 0.25 µg/mL (≈ 0.206 µM)
MIC ([1]; Staph. aureus L165, 24 h, about 10^4-10^5 cfu/ml): 0.13 µg/mL (≈ 0.107 µM)
MIC [2]: 0.13 µg/mL (≈ 0.107 µM)
MIC [3]: 0.5 µg/mL (≈ 0.412 µM)
MIC [4]: 1 µg/mL (≈ 0.824 µM)
MIC [5]: 0.5 µg/mL (≈ 0.412 µM)
MIC [6]: 0.5 µg/mL (≈ 0.412 µM)
MIC [7]: 0.25 µg/mL (≈ 0.206 µM)
MIC [8]: 1 µg/mL (≈ 0.824 µM)
MIC [9]: 1 µg/mL (≈ 0.824 µM)
MIC [10]: 32 µg/mL (≈ 26.4 µM)
MIC [11]: 16 µg/mL
MIC [12]: 32 µg/mL
MIC [13]: 128 µg/mL (≈ 106 µM)
MIC [14]: > 128 µg/mL
ED50 [15]: 6.2 mg/kg

Source: patent publication US4868171A, “Antibiotic A 40926 N-acylaminoglucuronyl aglycons and antiobiotic A 40926 aglycon” (Gruppo Lepetit S.p.A., priority 1986, dated 1989)
